Article PMC12251549, “Engineering a Radiohybrid PSMA Ligand with an Albumin-Binding Moiety and Pharmacokinetic Modulation via an Albumin-Binding Competitor for Radiotheranostics” (Molecules, 2025)

Experiments:
[1] = Biodistribution after intravenous co-injection of [125I]5 and [211At]6 (Table S2); type: in vivo, normal mice (ddY); details: normal mice, i.v.
Method: (§1) [^67Ga]Ga-PSMA-617 (37 kBq) and [^125I]5 (37 kBq) or [^125I]5 (37 kBq) and [^211At]6 (37 kBq) were intravenously co-administered into three or four normal mice at each timepoint (6 weeks male ddY mice, 28–30 g, Japan SLC, Inc., Hamamatsu, Japan). Mice were sacrificed at 10 min, 1 h, 4 h, and 24 h ([^67Ga]Ga-PSMA-617 and [^125I]5) or at 10 min, 1 h, 4 h, 12 h, and 24 h ([^125I]5 and [^211At]6) postinjection of the radiolabeled compounds. Tissues of interest were removed and weighed, and the radioactivity of ^67Ga and ^125I and ^125I and ^211At were determined with an auto well gamma counter (ARC-8001) and corrected for background radiation as described in the Cellular Uptake Experiments Section. To determine the amount and routes of the radioactivity excreted from the body for 24 h after the injection of radiolabeled compounds, mice were housed in metabolic cages (METABOLICA, SUGIYAMA-GEN Co., Ltd., Tokyo, Japan). Data are shown as the percentage of injected dose per gram of tissues (%ID/g) or %ID.

[2] = In vitro stability test in 0.1 M phosphate buffer; type: physicochemical; details: 0.1 M PB solution containing 10% ethanol, 37 °C, 24 h, mean ± SD for three samples
Method: samples were analyzed by RP-HPLC using a Cosmosil 5C18-AR-II (4.6 × 150 mm) at a flow rate of 1 mL/min with a gradient mobile phase of 60% methanol in water with 0.1% trifluoroacetic acid (TFA) to 80% methanol in water with 0.1% TFA for 20 min.
In vitro stability test in 0.1 M PB solution containing 10% ethanol was performed. The […]
and 97.1 ± 0.9% (mean ± SD for three samples) after incubating at 37 °C for 24 h, […]

[3] = Biodistribution after intravenous co-injection of [125I]5 and [67Ga]Ga-PSMA-617 (Table S1); type: in vivo, normal mice (ddY); details: normal mice; for Biodistribution of radioactivity: Blood / Biodistribution of radioactivity: Bone / Biodistribution of radioactivity: Brain / Biodistribution of radioactivity: Heart / Biodistribution of radioactivity: Kidney / Biodistribution of radioactivity: L. Intestine / Biodistribution of radioactivity: Liver / Biodistribution of radioactivity: Lung / Biodistribution of radioactivity: Muscle / Biodistribution of radioactivity: Neck / Biodistribution of radioactivity: Pancreas / Biodistribution of radioactivity: S. Intestine / Biodistribution of radioactivity: Spleen / Biodistribution of radioactivity: Stomach: i.v.
Method: as §1

Biodistribution of radioactivity: Neck ([1]; 24 h after injection): 0.17 (0.05) % injected dose
Biodistribution of radioactivity: Pancreas ([1]; 24 h after injection): 1.35 (0.12) % injected dose per gram
Biodistribution of radioactivity: S. Intestine ([1]; 24 h after injection): 0.69 (0.04) % injected dose per gram
Biodistribution of radioactivity: Spleen ([1]; 24 h after injection): 1.21 (0.27) % injected dose per gram
Biodistribution of radioactivity: Stomach ([1]; 24 h after injection): 0.55 (0.02) % injected dose
Biodistribution of radioactivity: Feces ([1]; excreted for 24 h after injection (column not printed safely), Table S2): 8.13 (1.09) % injected dose
Radiochemical purity after incubation (in vitro stability) [2]: 97.0 ± 0.7%
Excretion in feces ([3]; 24 h postinjection): 2.3 ± 0.3 %ID
Excretion in urine ([3]; 24 h postinjection): 10.3 ± 0.7 %ID
Blood retention ([3]; compared with [67Ga]Ga-PSMA-617): significantly prolonged blood retention
Biodistribution of radioactivity: Blood ([3]; 10 min after injection): 26.76 (0.56) % injected dose per gram
Biodistribution of radioactivity: Bone ([3]; 10 min after injection): 2.56 (0.45) % injected dose per gram
Biodistribution of radioactivity: Brain ([3]; 10 min after injection): 0.66 (0.14) % injected dose per gram
Biodistribution of radioactivity: Heart ([3]; 10 min after injection): 4.87 (0.63) % injected dose per gram
Biodistribution of radioactivity: Kidney ([3]; 10 min after injection): 10.29 (0.97) % injected dose per gram
Biodistribution of radioactivity: L. Intestine ([3]; 10 min after injection): 1.10 (0.07) % injected dose per gram
Biodistribution of radioactivity: Liver ([3]; 10 min after injection): 3.89 (0.34) % injected dose per gram
Biodistribution of radioactivity: Lung ([3]; 10 min after injection): 10.56 (0.97) % injected dose per gram
Biodistribution of radioactivity: Muscle ([3]; 10 min after injection): 0.89 (0.02) % injected dose per gram
Biodistribution of radioactivity: Neck ([3]; 10 min after injection): 0.04 (0.01) % injected dose
Biodistribution of radioactivity: Pancreas ([3]; 10 min after injection): 3.05 (0.20) % injected dose per gram
Biodistribution of radioactivity: S. Intestine ([3]; 10 min after injection): 2.11 (0.10) % injected dose per gram
Biodistribution of radioactivity: Spleen ([3]; 10 min after injection): 3.22 (0.38) % injected dose per gram
Biodistribution of radioactivity: Stomach ([3]; 10 min after injection): 0.78 (0.10) % injected dose
Biodistribution of radioactivity: Blood ([3]; 1 h after injection): 16.99 (1.80) % injected dose per gram
Biodistribution of radioactivity: Bone ([3]; 1 h after injection): 2.18 (0.26) % injected dose per gram
Biodistribution of radioactivity: Brain ([3]; 1 h after injection): 0.44 (0.19) % injected dose per gram
Biodistribution of radioactivity: Heart ([3]; 1 h after injection): 4.00 (0.35) % injected dose per gram
Biodistribution of radioactivity: Kidney ([3]; 1 h after injection): 6.22 (0.27) % injected dose per gram
Biodistribution of radioactivity: L. Intestine ([3]; 1 h after injection): 1.16 (0.18) % injected dose per gram
Biodistribution of radioactivity: Liver ([3]; 1 h after injection): 2.67 (0.11) % injected dose per gram
Biodistribution of radioactivity: Lung ([3]; 1 h after injection): 9.59 (2.25) % injected dose per gram
Biodistribution of radioactivity: Muscle ([3]; 1 h after injection): 1.06 (0.06) % injected dose per gram
Biodistribution of radioactivity: Neck ([3]; 1 h after injection): 0.03 (0.01) % injected dose
Biodistribution of radioactivity: Pancreas ([3]; 1 h after injection): 2.30 (0.22) % injected dose per gram
Biodistribution of radioactivity: S. Intestine ([3]; 1 h after injection): 2.02 (0.21) % injected dose per gram
Biodistribution of radioactivity: Spleen ([3]; 1 h after injection): 2.01 (0.29) % injected dose per gram
Biodistribution of radioactivity: Stomach ([3]; 1 h after injection): 0.75 (0.08) % injected dose
Biodistribution of radioactivity: Blood ([3]; 4 h after injection): 14.52 (0.22) % injected dose per gram
Biodistribution of radioactivity: Bone ([3]; 4 h after injection): 1.57 (0.64) % injected dose per gram
Biodistribution of radioactivity: Brain ([3]; 4 h after injection): 0.30 (0.03) % injected dose per gram
Biodistribution of radioactivity: Heart ([3]; 4 h after injection): 3.97 (0.22) % injected dose per gram
Biodistribution of radioactivity: Kidney ([3]; 4 h after injection): 6.93 (0.24) % injected dose per gram
Biodistribution of radioactivity: L. Intestine ([3]; 4 h after injection): 2.03 (0.07) % injected dose per gram
Biodistribution of radioactivity: Liver ([3]; 4 h after injection): 2.76 (0.11) % injected dose per gram
Biodistribution of radioactivity: Lung ([3]; 4 h after injection): 8.37 (0.62) % injected dose per gram
Biodistribution of radioactivity: Muscle ([3]; 4 h after injection): 1.41 (0.07) % injected dose per gram
Biodistribution of radioactivity: Neck ([3]; 4 h after injection): 0.03 (0.00) % injected dose
Biodistribution of radioactivity: Pancreas ([3]; 4 h after injection): 2.33 (0.13) % injected dose per gram
Biodistribution of radioactivity: S. Intestine ([3]; 4 h after injection): 1.99 (0.14) % injected dose per gram
Biodistribution of radioactivity: Spleen ([3]; 4 h after injection): 1.59 (0.35) % injected dose per gram
Biodistribution of radioactivity: Stomach ([3]; 4 h after injection): 0.69 (0.08) % injected dose
Biodistribution of radioactivity: Blood ([3]; 24 h after injection): 9.84 (0.85) % injected dose per gram
Biodistribution of radioactivity: Bone ([3]; 24 h after injection): 1.57 (0.22) % injected dose per gram
Biodistribution of radioactivity: Brain ([3]; 24 h after injection): 0.30 (0.03) % injected dose per gram
Biodistribution of radioactivity: Heart ([3]; 24 h after injection): 2.85 (0.36) % injected dose per gram
Biodistribution of radioactivity: Kidney ([3]; 24 h after injection): 7.37 (0.99) % injected dose per gram
Biodistribution of radioactivity: L. Intestine ([3]; 24 h after injection): 1.15 (0.35) % injected dose per gram
Biodistribution of radioactivity: Liver ([3]; 24 h after injection): 1.59 (0.34) % injected dose per gram
Biodistribution of radioactivity: Lung ([3]; 24 h after injection): 6.18 (0.83) % injected dose per gram
Biodistribution of radioactivity: Muscle ([3]; 24 h after injection): 1.08 (0.11) % injected dose per gram
Biodistribution of radioactivity: Neck ([3]; 24 h after injection): 0.02 (0.00) % injected dose
Biodistribution of radioactivity: Pancreas ([3]; 24 h after injection): 1.66 (0.46) % injected dose per gram
Biodistribution of radioactivity: S. Intestine ([3]; 24 h after injection): 1.11 (0.31) % injected dose per gram
Biodistribution of radioactivity: Spleen ([3]; 24 h after injection): 1.62 (0.16) % injected dose per gram
Biodistribution of radioactivity: Stomach ([3]; 24 h after injection): 0.67 (0.13) % injected dose
SMILES: O=C([O-])CN1CCN(CC(=O)[O-])CCN(CC(=O)NC(CCCCNC(=O)CCCc2ccc([125I])cc2)C(=O)NCC2CCC(C(=O)NC(Cc3ccc4ccccc4c3)C(=O)NCCCCC(NC(=O)NC(CCC(=O)O)C(=O)O)C(=O)O)CC2)CCN(CC(=O)[O-])CC1.[Ga+3] (stereo not drawn) [[^125I]5]
